Test results as given in patent publication US20160157490A1, “COMPOSITIONS COMPRISING A GERMINANT AND AN ANTIMICROBIAL AGENT” (priority 2010, published 2016).

Tested on: C. difficile spores
Experiment: Germination efficacy testing of germinant solution with antimicrobial and preservative (neutraliser, heat shock or ice)
Format: cell-based
Settings: for effect on the germinant solution / germination: antimicrobial added to germinant solution; for initiation of germination / sporicidal activity: without amino acids and taurocholate
Description: The solution was heated and mixed thoroughly to dissolve all of the components before filtration through a pore size of 0.2 μm for sterilization. (This solution is double the working strength as it is diluted 1:2 during the experiment).
The pH was adjusted to 7 and was autoclaved to sterilize.
For the control, 100 μL of sterilized distilled water was mixed with 100 μL of C. difficile spore suspension. Spore suspensions were also incubated with solutions containing benzalkonium chloride and Tris buffer (without amino acids or taurocholate), benzyl alcohol with Tris buffer (without amino acids and taurocholate) and a solution containing the five amino acids and taurocholate (with no antimicrobials). […] (miniMACS Anaerobic Workstation (Don Whitley Scientific Ltd)).

Row | Compound | effect on the germinant solution / germination | initiation of germination | sporicidal activity
1 | N=C(NCCCCCCNC(=N)NC(=N)Nc1ccc(Cl)cc1)NC(=N)Nc1ccc(Cl)cc1.O=C(O)[C@H](O)[C@@H](O)[C@H](O)[C@H](O)CO.O=C(O)[C@H](O)[C@@H](O)[C@H](O)[C@H](O)CO [cholorohexidine] | inhibit the germinant solution | – | –
2 | O=C(O)CN(CCN(CC(=O)O)CC(=O)O)CC(=O)O [EDTA] | inhibit the germinant solution | – | –
3 | benzalkonium chloride | do not affect germination | did not initiate germination | not sporicidal
4 | OCc1ccccc1 [benzyl alcohol] | do not affect germination | did not initiate germination | not sporicidal
